Assay results as given in US20210169854A1, “3'-[(2Z)-[1-(3,4-dimethylphenyl)-1,5-dihydro-3-methyl-5-oxo-4H-pyrazol-4-ylidene]hydrazino]-2'-hydroxy-[1,1'-biphenyl]-3-carboxylic acid and its salts formulation” (NOVARTIS AG, priority 2019, published 2021).
Like-named read-outs stand apart in the source and are kept apart here.

How the values were obtained:
[1] = cited from earlier work
[2] = standard high-fat breakfast; cited from earlier work
[3] = cited from earlier work; remark: listed apart in the source
[4] = Solubility and permeability of eltrombopag (general statements, data not shown); type: physicochemical; settings: even in the form of bis-monoethanolamine salt
[5] = cited from earlier work; remark: listed apart in the source
[6] = single 25-mg dose for oral suspension 2 hours after the high-calcium meal
[7] = single 25-mg dose for oral suspension 2 hours before the high-calcium meal
[8] = single 25-mg dose for oral suspension with a high-calcium, moderate-fat, moderate-calorie meal

| solubility in water and in a number of liquid/semisolid surfactants [4] | SMILES | AUC elevation compared with the fasted state ([1]; after a high fat meal) | Cmax elevation compared with the fasted state ([1]; after a high fat meal) | AUC elevated compared with the fasted state ([1]; after a low fat meal) | Cmax elevated compared with the fasted state ([1]; after a low fat meal) | decrease of plasma eltrombopag AUCO-∞ [2] | decrease of plasma eltrombopag Cmax [2] | solubility (BCS context) [3] | reduction of plasma eltrombopag AUCO-∞ [5, 6] | reduction of plasma eltrombopag Cmax [5, 6] | reduction of plasma eltrombopag AUCO-∞ [5, 7] | reduction of plasma eltrombopag Cmax [5, 7] | reduction of plasma eltrombopag AUCO-∞ [5, 8] | reduction of plasma eltrombopag Cmax [5, 8] |
| --- | --- | --- | --- | --- | --- | --- | --- | --- | --- | --- | --- | --- | --- | --- |
| – | C[C@]12CC[C@H](O)CC1=CC[C@@H]1[C@@H]2CC[C@]2(C)C(c3cccnc3)=CC[C@@H]12 [abiraterone] | 10 fold | 17 fold | 5 fold | 7 fold | – | – | – | – | – | – | – | – | – |
| low solubility | CC1=NN(c2ccc(C)c(C)c2)C(=O)/C1=N\Nc1cccc(-c2cccc(C(=O)O)c2)c1O [eltrombopag, 3′-[(2Z)-[1-(3,4-dimethylphenyl)-1,5-dihydro-3-methyl-5-oxo-4H-pyrazol-4-ylidene]hydrazino]-2′-hydroxy-[1,1′-biphenyl]-3-carboxylic acid] | – | – | – | – | approximately 59% | 65% | low soluble | 47% | 48% | 20% | 14% | 75% | 79% |
